The text below walks through data of US6887873B2, “Triazine derivatives and their application as antitelomerase agents” (Aventis Pharma S.A., priority 2001, dated 2005).

One experiment concerns A549 cells. Description: Cytotoxic activity on human tumour line A549, neutral red, 96 hours. The following applies: Homo sapiens, A549, A549; read-out: Cytotox. A549 IC50. The format is cell-based. The method, then: The cytotoxic biological activity on human tumour lines is determined according to the following experimental protocol:
The human cell lines A549 are obtained from ATCC (American Type Culture Collection, Rockville, USA). The A549 cells are cultured in a layer in a culture flask in RPMI 1640 medium containing L-glutamine at 2 mM, penicillin 200 U/ml, streptomycin 200 μg/ml and supplemented with 10% heat-inactivated foetal calf serum. The KB cells are cultured in a layer in a culture flask in Dulbelco's medium containing L-glutamine at 2 mM, penicillin 200 U/ml, streptomycin 200 μg/ml and supplemented with 10% heat-inactivated foetal calf serum.
The cells at the exponential growth phase are trypsinized, washed in 1×PBS and are inoculated in 96-well microplates (Costar) in an amount of 4×10^4 cells/ml for A549 and of 1.5×10^4 cells/ml (0.2 ml/well) and then incubated for 96 hours in the presence of variable concentrations of product to be studied (10, 1, 0.1 and 0.01 μM, each point in quadruplicate). 16 hours before the end of the incubation, 0.02% final of neutral red is added to each well. At the end of the incubation, the cells are washed with 1×PBS and lysed with 1% sodium lauryl sulphate. The cellular incorporation of the dye, which reflects cellular growth, is evaluated by spectro-photometry at a wavelength of 540 nm for each sample with the aid of a Dynatech MR5000 reading apparatus.
For each compound concentration tested, the results are expressed as percentage of inhibition of cellular growth and calculated from the untreated control and the culture medium free of cells (blank) according to the following formula: (compound value−blank value/cell control value−blank value)×100.
The concentration of compound inducing a 50% inhibition of growth (IC50) is determined with the aid of a semilogarithmic graphical representation of the inhibition values obtained as a function of each of the compound concentrations tested.
A compound is considered to be active as cytotoxic agent if the concentration inhibiting the growth of the tumour cells tested by 50% is in particular less than 10 μM.

Experiment [1] deals with human telomerease (HL60 cell extract). Description: Antitelomerease activity: extension of oligonucleotide TS followed by PCR amplification, with HL60 extract. The format is biochemical. Conditions: read-out: TRAP IC50. The method, boiled down:
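HL60 CHAPS-lysate extract extends TS primer (15 min, 30 °C) with compound at 10, 1, 0.1 and 0.01 µM, followed by 30-cycle PCR with TS and CXext. Products resolved on 12% acrylamide and quantified; % inhibition versus enzyme control and blank, IC50 read from semilog plot.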

The test system of experiment [2] is G-quadruplex of oligonucleotide GGGTTAGGGTTAGGGTTAGGG (3.5 repeats of the human telomereic motif). As to the kind of experiment: G-quadruplex stabilizing activity, fluorescence Tm (FAM+DABCYL oligonucleotide). The format is binding. An outline of the steps:
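FAM/DABCYL-labelled telomeric oligonucleotide (0.2 μM strand) in 10 mM sodium cacodylate pH 7.6 with 0.1 M LiCl (or NaCl) was annealed, then incubated ≥1 h at 20 °C with compound at 1 μM final. Samples were heated 20→80 °C, with excitation at 470 nm and emission at 515/588 nm. Tm is the 515 nm emission midpoint.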

By IC50 is commonly meant the midpoint of a concentration-inhibition curve.

For `COc1ccc(CNc2nc(Nc3ccc4nc(C)cc(N)c4c3)nc(Nc3ccc4nc(C)cc(N)c4c3)n2)cc1` [Example 83], the IC50 in the experiment with A549 cells is 14000 nM; in experiment [1], 1200 nM.

Consider `Cc1cc(N)c2cc(Nc3nc(Nc4ccc5nc(C)cc(N)c5c4)nc(N4CCN(c5ccc6ccccc6n5)CC4)n3)ccc2n1` [Example 71], for which the IC50 in the experiment on A549 cells turned out to be 12400 nM; in experiment [1], 350 nM.

In the case of `Cc1cc(N)c2cc(Nc3nc(Nc4ccc5nc(C)cc(N)c5c4)nc(Nc4ccccn4)n3)ccc2n1` [Example 89], the IC50 amounted to 20000 nM with A549 cells and 1200 nM in experiment [1].

With `Cc1cc(N)c2cc(Nc3nc(Nc4ccc5nc(C)cc(N)c5c4)nc(Sc4ccccc4)n3)ccc2n1` [Example 117], the IC50 with A549 cells came out at 19500 nM.

As for `Cc1cc(N)c2cc(Nc3nc(NCCN4CCCC4)nc(Nc4ccc5nc(C)cc(N)c5c4)n3)ccc2n1` [Example 46], the “G4 delta Tm” value in experiment [2] was 18.5 °C. For the same compound, the IC50 in experiment [1] was 1000 nM.

In the case of `Cc1cc(N)c2cc(Nc3nc(NCCN(C)C)nc(Nc4ccccc4Cl)n3)ccc2n1` [Example 5], in experiment [2], the “G4 delta Tm” value is 2.0 °C. In experiment [1], the IC50 was 2700 nM.

Consider `Cc1cc(N)c2cc(Nc3nc(NCCN(CCN(C)C)Cc4ccccc4)nc(Nc4ccc5nc(C)cc(N)c5c4)n3)ccc2n1` [Example 37], for which the “G4 delta Tm” value in experiment [2] is 17.5 °C. Further, in experiment [1], the IC50 came to 230 nM.

Take `Cc1cc(N(C)C)c2cc(Nc3nc(NCC4CCCN4)nc(Nc4ccc5nc(C)cc(N(C)C)c5c4)n3)ccc2n1` (stereo not drawn) [Example 22]: in experiment [2], the “G4 delta Tm” value is 2.7 °C. Besides, the 50% inhibitory concentration (IC50) in experiment [1] was determined as 340 nM.

As to `COc1cccc(CNc2nc(Nc3ccc4nc(C)cc(N)c4c3)nc(Nc3ccc4nc(C)cc(N)c4c3)n2)c1` [Example 52], the “G4 delta Tm” value in experiment [2] was 6.5 °C. Further, in experiment [1], the 50% inhibitory concentration (IC50) is 1300 nM.

Turning to `Cc1cc(N)c2cc(Nc3nc(Nc4ccccc4Cl)nc(N4CCN(C)CC4)n3)ccc2n1` [Example 8], in experiment [2], the “G4 delta Tm” value was found to be 1.5 °C. Besides, the concentration for half-maximal inhibition (IC50) in experiment [1] was 3200 nM.

Consider `Cc1cc(N)c2cc(Nc3nc(NCc4ccc(N(C)C)cc4)nc(Nc4ccc5nc(C)cc(N)c5c4)n3)ccc2n1` [Example 85], for which the half-inhibitory concentration (IC50) worked out at 16000 nM in the experiment on A549 cells and 3900 nM in experiment [1].

As to `Cc1cc(N)c2cc(Nc3nc(Nc4ccc5nc(C)cc(N)c5c4)nc(N4CCCC(O)C4)n3)ccc2n1` (stereo not drawn) [Example 160], the “G4 delta Tm” value in experiment [2] came to 10.5 °C. Moreover, in experiment [1], the IC50 turned out to be 360 nM.

In the case of `Cc1cc(N(C)C)c2cc(Nc3nc(Nc4ccc5nc(C)cc(N(C)C)c5c4)nc(NC(CO)CO)n3)ccc2n1` [Example 170], the “G4 delta Tm” value in experiment [2] turned out to be 3 °C. Besides, the 50% inhibitory concentration (IC50) in experiment [1] is 1300 nM.

For the compound `Cc1cc(N)c2cc(Nc3nc(Nc4ccc5nc(C)cc(N)c5c4)nc(SCCN(C)C)n3)ccc2n1` [Example 132], in experiment [2], the “G4 delta Tm” value came to 12.5 °C. The IC50 in experiment [1] came out at 400 nM.

`Cc1cc(N)c2cc(Nc3nc(Nc4ccncc4)nc(Nc4ccccc4Cl)n3)ccc2n1` [Example 4]: the “G4 delta Tm” value in experiment [2] was 5.5 °C. In addition, the IC50 in experiment [1] came out at 3000 nM.

Consider `Cc1cc(N)c2cc(Nc3nc(Nc4ccc5nc(C)cc(N)c5c4)nc(N(C)C4CCN(Cc5ccccc5)C4)n3)ccc2n1` (stereo not drawn) [Example 65], for which the “G4 delta Tm” value in experiment [2] is 12.5 °C. In addition, in experiment [1], the IC50 was 1000 nM.

For `COCCNc1nc(Nc2ccc3nc(C)cc(N(C)C)c3c2)nc(Nc2ccc3nc(C)cc(N(C)C)c3c2)n1` [Example 25], the “G4 delta Tm” value in experiment [2] stood at 4.2 °C. Moreover, the IC50 in experiment [1] was determined as 2200 nM.

As to `Cc1cc(N)c2cc(Nc3nc(Nc4ccc5nc(C)cc(N)c5c4)nc(N4CCN(c5ncccn5)CC4)n3)ccc2n1` [Example 58], the “G4 delta Tm” value in experiment [2] amounted to 6 °C. For the same compound, the concentration for half-maximal inhibition (IC50) in experiment [1] turned out to be 220 nM.

Consider `Cc1cc(N(C)C)c2cc(Nc3nc(Nc4ccc5nc(C)cc(N(C)C)c5c4)nc(N4CCOCC4)n3)ccc2n1` [Example 24], for which, in experiment [2], the “G4 delta Tm” value amounted to 9.7 °C. The concentration for half-maximal inhibition (IC50) in experiment [1] is 1600 nM.

In the case of `Cc1cc(N)c2cc(Nc3nc(Nc4ccc5nc(C)cc(N)c5c4)nc(N4CCCN(CCCN5CCCC5)CC4)n3)ccc2n1` [Example 76], the “G4 delta Tm” value in experiment [2] was 19 °C. The IC50 in experiment [1] turned out to be 110 nM.

As to `Cc1cc(N)c2cc(Nc3nc(Nc4ccc5nc(C)cc(N)c5c4)nc(Oc4cccc5ccccc45)n3)ccc2n1` [Example 107], the “G4 delta Tm” value in experiment [2] turned out to be 4.5 °C. Further, the 50% inhibitory concentration (IC50) in experiment [1] came to 370 nM.

Consider `CCN(CC)CCNc1nc(Nc2ccc3nc(C)cc(N)c3c2)nc(Nc2ccc3nc(C)cc(N)c3c2)n1` [Example 36], for which the “G4 delta Tm” value in experiment [2] is 17.5 °C. Further, the IC50 in experiment [1] was found to be 240 nM.

`Cc1cc(N)c2cc(Nc3nc(Nc4ccc5nc(C)cc(N)c5c4)nc(Oc4ccncc4)n3)ccc2n1` [Example 32, 2,4-bis(4-amino-2-methylquinolin-6-yl)amino-6-(pyridin-4-yl)oxy-[1,3,5]triazine]: the “G4 delta Tm” value in experiment [2] amounted to 10.0 °C. Besides, the IC50 in experiment [1] stood at 300 nM.

For `CCN(CCSc1nc(Nc2ccc3nc(C)cc(N)c3c2)nc(Nc2ccc3nc(C)cc(N)c3c2)n1)Cc1ccccc1` [Example 131], the “G4 delta Tm” value in experiment [2] came to 4.5 °C. For the same compound, the concentration for half-maximal inhibition (IC50) in experiment [1] was 910 nM.

As for `Cc1cc(N)c2cc(Nc3nc(Nc4ccc5nc(C)cc(N)c5c4)nc(Oc4ccc5ccccc5c4)n3)ccc2n1` [Example 108], in experiment [2], the “G4 delta Tm” value was determined as 3 °C. In addition, in experiment [1], the IC50 came out at 370 nM.

For the compound `Cc1cc(N)c2cc(Nc3nc(NCCN(C(C)C)C(C)C)nc(Nc4ccc5nc(C)cc(N)c5c4)n3)ccc2n1` [Example 39], in experiment [2], the “G4 delta Tm” value is 19.5 °C. Further, the concentration for half-maximal inhibition (IC50) in experiment [1] came to 230 nM.

As for `Cc1cc(N(C)C)c2cc(Nc3nc(Nc4ccc5nc(C)cc(N(C)C)c5c4)nc(-c4ccccc4)n3)ccc2n1` [Example 134, 2,4-bis(4-dimethylamino-2-methylquinolin-6-yl)amino-6-phenyl-[1,3,5]triazine], in the experiment on A549 cells, the IC50 came out at 880 nM.

For the compound `COC(=O)CSc1nc(Nc2ccc3nc(C)cc(N)c3c2)nc(Nc2ccc3nc(C)cc(N)c3c2)n1` [Example 125], the “G4 delta Tm” value in experiment [2] worked out at 14.5 °C. Also, the IC50 in experiment [1] was 360 nM.

With `Cc1cc(N(C)C)c2cc(Nc3nc(Nc4ccc5nc(C)cc(N(C)C)c5c4)nc(Sc4ccc5ccccc5n4)n3)ccc2n1` [Example 133, 2,4-bis(4-dimethylamino-2-methylquinolin-6-yl)amino-6-(quinolin-2-yl)thio-[1,3,5]triazine], in experiment [2], the “G4 delta Tm” value amounted to 25 °C. Besides, the 50% inhibitory concentration (IC50) in experiment [1] was found to be 180 nM.

As for `Cc1cc(N)c2cc(Nc3nc(NCC4CCCN4)nc(Nc4ccc5nc(C)cc(N)c5c4)n3)ccc2n1` (stereo not drawn) [Example 16], the “G4 delta Tm” value in experiment [2] worked out at 7.3 °C. In experiment [1], the IC50 was found to be 80 nM.

For `Cc1cc(C)nc(Oc2nc(Nc3ccc4nc(C)cc(N)c4c3)nc(Nc3ccc4nc(C)cc(N)c4c3)n2)n1` [Example 109], in experiment [2], the “G4 delta Tm” value came to 4.5 °C. Further, in experiment [1], the IC50 is 340 nM.

For the compound `Cc1cc(N)c2cc(Nc3nc(NCCCN(C)C)nc(Nc4ccc5nc(C)cc(N)c5c4)n3)ccc2n1` [Example 12], the “G4 delta Tm” value in experiment [2] was determined as 9.4 °C. In addition, the IC50 in experiment [1] is 300 nM.

In the case of `COc1cccc(Sc2nc(Nc3ccc4nc(C)cc(N)c4c3)nc(Nc3ccc4nc(C)cc(N)c4c3)n2)c1` [Example 122], the “G4 delta Tm” value in experiment [2] came to 13.5 °C. Also, in experiment [1], the IC50 is 370 nM.

Take `CCN(CC)CCN(CCN(CC)CC)c1nc(Nc2ccc3nc(C)cc(N)c3c2)nc(Nc2ccc3nc(C)cc(N)c3c2)n1` [Example 40]: the “G4 delta Tm” value in experiment [2] was determined as 19 °C. Moreover, the 50% inhibitory concentration (IC50) in experiment [1] was 230 nM.
